Assay results taken from US12173007B2, “Imidazopyridazine IL-17 inhibitor compounds” (Janssen Pharmaceutica NV, priority 2021, dated 2024).

How the values were obtained:
[1] = target: IL-17A(FLAG-Tagged): IL-17RA(His-Tagged) binding (Homo sapiens, UniProt Q16552, K93Q); assay: IL-17A(FLAG-tagged):IL-17RA(His-tagged) binding disruption Eu-HTRF assay, Protocol 2; settings: FLAG-IL-17A 1 nM; average if tested more than once
Source text: IL-17A(FLAG-Tagged): IL-17RA(His-Tagged) Binding Disruption Eu-HTRF Assay
An antibody directed against the FLAG tag of IL-17A (SEQ ID NO: 1) is labeled with the HTRF donor chromophore (Europium-cryptate). IL-17A is present as a dimer that is “locked into” this quaternary structure due to the formation of loop-spanning […] disulfide bridges. The construct of IL-17RA used in the assay excludes the […] portion of the receptor and is fused to a C-terminal 10×His tag (SEQ ID NO:2). An antibody directed against the His tag of the IL-17RA chimera is labeled with the HTRF acceptor chromophore (“D2”). The fluorescence-resonance energy transfer (FRET) depends on the vicinity of the donor chromophore to the acceptor, and interruption of the binding between the IL-17A and IL-17RA causes the reduction/loss of FRET. Therefore, this assay allows to evaluate the compound effect on the binding IL-17A and IL-17RA by monitoring the fluorescence intensity of donor vs acceptor. The assay was run using either Protocol 1 or Protocol 2 as described below.
Protocol 2. 40 nl of 2-fold serial diluted compound solution for total 22 dilution points is added into each well of a 1536-well, white, low-volume, non-binding plate (Greiner #782904), then 2 μl of FLAG tagged IL-17A at 2×final concentration (1 nM) in solution of PBS+0.01% Triton-X100 is added to each well. The assay plate is briefly centrifuged then incubated for 1 h at rt. A mixed solution is prepared containing 2×5 nM 10HIS×IL-17RA, 2×2.5 nM Eu-anti-FLAG (CISBIO), 2×5 nM D2-anti-HIS (CISBIO) in PBS+0.01% Triton-X100+200 mM Potassium Fluoride (Sigma 60238) and 2 μl of mix is added to each well of the assay plate. The plate is briefly centrifuged then incubated for 2 h at rt. The HTRF intensities at the wavelength of donor (615 nm) and acceptor (665 nm) are measured using BMG Pherastar. The ratio between intensities at two wavelengths is calculated and plotted against the compound concentration and the data is fitted to a one-site competition model to yield IC50 of the compound.

[2] = test system: IL-17A-induced G-CSF production in human normal keratinocyte (NHK); assay: NHK assay: IL-17A-induced G-CSF production in normal human keratinocytes; type: cell-based; settings: 24 h, IL-17A 5 ng/mL, G-CSF by HTRF, average if tested more than once
Procedure, shortened: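 IC50 derives from G-CSF in supernatants, quantified by HTRF from a standard curve, with CellTiter-Glo viability compared to DMSO control. Before a 24 h, 37°C culture of normal human keratinocytes at 3000–4000 cells/well, compound dilutions were preincubated 1 h at rt with human IL-17A (5 ng/mL final), with 0.2% DMSO and 5% FBS.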

Sequence of UniProt Q16552 (Q16552 with tags, fused parts or gaps K93Q): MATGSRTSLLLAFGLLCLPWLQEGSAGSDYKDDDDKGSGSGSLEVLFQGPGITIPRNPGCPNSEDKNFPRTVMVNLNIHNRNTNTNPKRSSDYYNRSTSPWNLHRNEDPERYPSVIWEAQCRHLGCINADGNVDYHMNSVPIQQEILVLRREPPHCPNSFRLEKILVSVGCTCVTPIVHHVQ

SMILES | IC50 [1] | IC50 ([2]; Homo sapiens, Keratinocyte) | IC50 [2]
COC[C@H](c1cnn2cc(C(CCC3(C(F)(F)F)CC3)NC(=O)c3nonc3C)nc2c1)N1CC(F)(F)CNC1=O (single isomer, unassigned) [Example 125, N—((R*)-1-(7-((S)-1-(5,5-Difluoro-2-oxotetrahydropyrimidin-1(2H)-yl)-2-methoxyethyl)imidazo[1,2-b]pyridazin-2-yl)-3-(1-(trifluoromethyl)cyclopropyl)propyl)-4-methyl-1,2,5-oxadiazole-3-carboxamide] | > 100 nM | > 100 nM | –
COC[C@H](c1cnn2cc(C(NC(=O)c3nonc3C)C3C[C@H]4CC[C@H]4C3)nc2c1)N1CC(F)(F)CNC1=O (single isomer, unassigned) [Example 132, N-((1S*)-((1R,5S)-Bicyclo[3.2.0]heptan-3-yl)(7-((S)-1-(5,5-difluoro-2-oxotetrahydropyrimidin-1(2H)-yl)-2-methoxyethyl)imidazo[1,2-b]pyridazin-2-yl)methyl)-4-methyl-1,2,5-oxadiazole-3-carboxamide] | < 50 nM | < 50 nM | –
Cc1nonc1C(=O)N[C@@H](CCC(C)(C)C(F)(F)F)c1cn2ncc([C@@H](COC3CC3)N3CC(F)(F)CNC3=O)cc2n1 [Example 56, N—((S)-1-(7-((S)-2-Cyclopropoxy-1-(5,5-difluoro-2-oxotetrahydropyrimidin-1(2H)-yl)ethyl)imidazo[1,2-b]pyridazin-2-yl)-5,5,5-trifluoro-4,4-dimethylpentyl)-4-methyl-1,2,5-oxadiazole-3-carboxamide] | < 50 nM | < 50 nM | –
[2H]C1([2H])NC(=O)N([C@H](COC2CC2)c2cnn3cc([C@@H](NC(=O)c4nonc4OC)C4CCC(F)(F)CC4)nc3c2)C([2H])([2H])C1(F)F [Example 69, N—((S)-(7-((S)-2-Cyclopropoxy-1-(5,5-difluoro-2-oxotetrahydropyrimidin-1(2H)-yl-4,4,6,6-d4)ethyl)imidazo[1,2-b]pyridazin-2-yl)(4,4-difluorocyclohexyl)methyl)-4-methoxy-1,2,5-oxadiazole-3-carboxamide] | < 50 nM | < 50 nM | –
[2H]C1([2H])NC(=O)N([C@H](COC2CC2)c2cnn3cc([C@@H](NC(=O)c4nonc4CC)C4CCC(F)(F)CC4)nc3c2)C([2H])([2H])C1(F)F [Example 70, N—((S)-(7-((S)-2-Cyclopropoxy-1-(5,5-difluoro-2-oxotetrahydropyrimidin-1(2H)-yl-4,4,6,6-d4)ethyl)imidazo[1,2-b]pyridazin-2-yl)(4,4-difluorocyclohexyl)methyl)-4-ethyl-1,2,5-oxadiazole-3-carboxamide] | < 50 nM | < 50 nM | –
[2H]C1([2H])NC(=O)N([C@H](COC2CC2)c2cnn3cc([C@@H](NC(=O)c4ccnn4C(C)C)C4CCC(F)(F)CC4)nc3c2)C([2H])([2H])C1(F)F [Example 71, N—((S)-(7-((S)-2-Cyclopropoxy-1-(5,5-difluoro-2-oxotetrahydropyrimidin-1(2H)-yl-4,4,6,6-d4)ethyl)imidazo[1,2-b]pyridazin-2-yl)(4,4-difluorocyclohexyl)methyl)-1-isopropyl-1H-pyrazole-5-carboxamide] | < 50 nM | < 50 nM | –
[2H]C1([2H])NC(=O)N([C@H](COC)c2cnn3cc([C@@H](NC(=O)c4nonc4C4CC4)C4CCC(F)(F)CC4)nc3c2)C([2H])([2H])C1(F)F [Example 72, 4-Cyclopropyl-N—((S)-(7-((S)-1-(5,5-difluoro-2-oxotetrahydropyrimidin-1(2H)-yl-4,4,6,6-d4)-2-methoxyethyl)imidazo[1,2-b]pyridazin-2-yl)(4,4-difluorocyclohexyl)methyl)-1,2,5-oxadiazole-3-carboxamide] | < 50 nM | < 50 nM | –
[2H]C1([2H])NC(=O)N([C@H](COC)c2cnn3cc([C@H](CCC(C)(C)C(F)(F)F)NC(=O)c4nonc4OC)nc3c2)C([2H])([2H])C1(F)F [Example 73, N—((S)-1-(7-((S)-1-(5,5-Difluoro-2-oxotetrahydropyrimidin-1(2H)-yl-4,4,6,6-d4)-2-methoxyethyl)imidazo[1,2-b]pyridazin-2-yl)-5,5,5-trifluoro-4,4-dimethylpentyl)-4-methoxy-1,2,5-oxadiazole-3-carboxamide] | < 50 nM | < 50 nM | –
[2H]C1([2H])NC(=O)N([C@H](COC)c2cnn3cc([C@H](CCC(C)(C)C(F)(F)F)NC(=O)c4nonc4C)nc3c2)C([2H])([2H])C1(F)F [Example 74, N—((S)-1-(7-((S)-1-(5,5-Difluoro-2-oxotetrahydropyrimidin-1(2H)-yl-4,4,6,6-d4)-2-methoxyethyl)imidazo[1,2-b]pyridazin-2-yl)-5,5,5-trifluoro-4,4-dimethylpentyl)-4-methyl-1,2,5-oxadiazole-3-carboxamide] | < 50 nM | < 50 nM | –
[2H]C1([2H])NC(=O)N([C@H](COC2CC2)c2cnn3cc([C@H](CCC(C)(C)C(F)(F)F)NC(=O)c4nonc4OC)nc3c2)C([2H])([2H])C1(F)F [Example 75, N—((S)-1-(7-((S)-2-Cyclopropoxy-1-(5,5-difluoro-2-oxotetrahydropyrimidin-1(2H)-yl-4,4,6,6-d4)ethyl)imidazo[1,2-b]pyridazin-2-yl)-5,5,5-trifluoro-4,4-dimethylpentyl)-4-methoxy-1,2,5-oxadiazole-3-carboxamide] | < 50 nM | < 50 nM | –

Further lines, with some results ahead:

IC50 [1] | SMILES | IC50 ([2]; Homo sapiens, Keratinocyte) | IC50 [2]
< 50 nM | Cc1nonc1C(=O)N[C@H](c1cn2ncc(C(C3CCOCC3)N3CC(F)(F)CNC3=O)cc2n1)C1CCC(F)(F)CC1 (single isomer, unassigned) [Example 59, N—((S)-(7-((R*)-(5,5-Difluoro-2-oxotetrahydropyrimidin-1(2H)-yl)(tetrahydro-2H-pyran-4-yl)methyl)imidazo[1,2-b]pyridazin-2-yl)(4,4-difluorocyclohexyl)methyl)-4-methyl-1,2,5-oxadiazole-3-carboxamide] | < 50 nM | –
< 50 nM | COC[C@H](c1cnn2cc(C(CC(C)(C)C(C)(F)F)NC(=O)c3nonc3C3CC3)nc2c1)N1CC(F)(F)CNC1=O (single isomer, unassigned) [Example 68, 4-Cyclopropyl-N—((S*)-1-(7-((S)-1-(5,5-difluoro-2-oxotetrahydropyrimidin-1(2H)-yl)-2-methoxyethyl)imidazo[1,2-b]pyridazin-2-yl)-4,4-difluoro-3,3-dimethylpentyl)-1,2,5-oxadiazole-3-carboxamide] | < 50 nM | –
< 50 nM | COC[C@H](c1cnn2cc(C(CCC3(C(F)(F)F)CC3)NC(=O)c3nonc3C)nc2c1)N1CC(F)(F)CNC1=O (single isomer, unassigned) [Example 126, N—((S*)-1-(7-((S)-1-(5,5-Difluoro-2-oxotetrahydropyrimidin-1(2H)-yl)-2-methoxyethyl)imidazo[1,2-b]pyridazin-2-yl)-3-(1-(trifluoromethyl)cyclopropyl)propyl)-4-methyl-1,2,5-oxadiazole-3-carboxamide] | – | < 50 nM
< 50 nM | COC[C@H](c1cnn2cc([C@@H](NC(=O)c3nonc3C3CC3(F)F)C3CCC(F)(F)CC3)nc2c1)N1CC(F)(F)CNC1=O (single isomer, unassigned) [Example 128, N—((S)-(7-((S)-1-(5,5-Difluoro-2-oxotetrahydropyrimidin-1(2H)-yl)-2-methoxyethyl)imidazo[1,2-b]pyridazin-2-yl)(4,4-difluorocyclohexyl)methyl)-4-((R*)-2,2-difluorocyclopropyl)-1,2,5-oxadiazole-3-carboxamide] | < 50 nM | –
< 50 nM | COC[C@H](c1cnn2cc([C@@H](NC(=O)c3nonc3C3CC3(F)F)C3CCC(F)(F)CC3)nc2c1)N1CC(F)(F)CNC1=O (single isomer, unassigned) [Example 129, N—((S)-(7-((S)-1-(5,5-Difluoro-2-oxotetrahydropyrimidin-1(2H)-yl)-2-methoxyethyl)imidazo[1,2-b]pyridazin-2-yl)(4,4-difluorocyclohexyl)methyl)-4-((S*)-2,2-difluorocyclopropyl)-1,2,5-oxadiazole-3-carboxamide] | – | < 50 nM
